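Protocol summary: plate cells (96-well), add compound at 5 concentrations, incubate 48 h, interpolate endpoints linearly. Abbreviation: GI50, concentration required for 50% inhibition of growth.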 The source made the active and inactive calls. Cut-off read from the data, not from the text of the source: active = GI50 up to about 1.1 µM and inactive = higher.
Tests used:
Assay in all cases: inhibition of tumour cell growth, NCI panel, 48 h
LOX IMVI = tested on: LOX IMVI
NCI-H460 = tested on: NCI-H460
CCRF-CEM = tested on: CCRF-CEM
A549 = tested on: A549
SR = tested on: SR
PC-3 = tested on: PC-3
SK-OV-3 = tested on: SK-OV-3
ACHN = tested on: ACHN
MDA-MB-435 = tested on: MDA-MB-435
SK-MEL-5 = tested on: SK-MEL-5
OVCAR-8 = tested on: OVCAR-8
DU-145 = tested on: DU-145
HOP-92 = tested on: HOP-92
MDA-MB-231 = tested on: MDA-MB-231
UACC-62 = tested on: UACC-62
MDA-N = tested on: MDA-N
Malme-3M = tested on: Malme-3M
UACC-257 = tested on: UACC-257
OVCAR-3 = tested on: OVCAR-3
SNB-75 = tested on: SNB-75

Compound | GI50 (LOX IMVI) | GI50 (NCI-H460) | GI50 (CCRF-CEM) | GI50 (A549) | GI50 (SR) | GI50 (PC-3) | GI50 (SK-OV-3) | GI50 (ACHN) | GI50 (MDA-MB-435) | GI50 (SK-MEL-5) | GI50 (OVCAR-8) | GI50 (DU-145) | GI50 (HOP-92) | GI50 (MDA-MB-231) | GI50 (UACC-62) | GI50 (MDA-N) | GI50 (Malme-3M) | GI50 (UACC-257) | GI50 (OVCAR-3) | GI50 (SNB-75)
COc1ccc(/C=N/n2c(Cc3ccccc3)n[nH]c2=O)c(OC)c1 | 27.5 µM (inactive) | > 50.7 µM (inactive) | > 100 µM (inactive) | > 39.5 µM (inactive) | > 100 µM (inactive) | > 100 µM (inactive) | 29.2 µM (inactive) | 30.4 µM (inactive) | > 100 µM (inactive) | > 71.4 µM (inactive) | 24.7 µM (inactive) | > 100 µM (inactive) | 24.2 µM (inactive) | 36.7 µM (inactive) | > 88.3 µM (inactive) | > 100 µM (inactive) | 59.2 µM (inactive) | > 100 µM (inactive) | > 63.5 µM (inactive) | 9.71 µM (inactive)
Cc1cccc2c(N)c3cccc(C(=O)NCC[N+](C)(C)Cc4ccc([N+](=O)[O-])s4)c3nc12 | 3.84 µM (inactive) | 1.57 µM (inactive) | 1.85 µM (inactive) | 0.404 µM (active) | 1.19 µM (inactive) | 7 µM (inactive) | 19.6 µM (inactive) | 2.69 µM (inactive) | 21.9 µM (inactive) | 11.6 µM (inactive) | 9.29 µM (inactive) | 9.1 µM (inactive) | 16 µM (inactive) | 4.42 µM (inactive) | 16.5 µM (inactive) | 16 µM (inactive) | 8.2 µM (inactive) | 23.7 µM (inactive) | 9.04 µM (inactive) | 17.2 µM (inactive)
Cc1oc2c(c1C(=O)c1ccccc1)C(=O)c1ccccc1C2=O | 2.22 µM (inactive) | 9.38 µM (inactive) | 2.16 µM (inactive) | 14.7 µM (inactive) | 3.24 µM (inactive) | 6.79 µM (inactive) | 12.5 µM (inactive) | 4.65 µM (inactive) | 1.58 µM (inactive) | 1.24 µM (inactive) | 5.06 µM (inactive) | 11.8 µM (inactive) | 2.21 µM (inactive) | 2.24 µM (inactive) | 2.98 µM (inactive) | 2 µM (inactive) | 1.81 µM (inactive) | 3.61 µM (inactive) | 2.26 µM (inactive) | 6.78 µM (inactive)
COc1cc(/C=C2/SC(c3ccccc3)N(c3cc(Cl)ccc3Cl)C2=O)cc(OC)c1OC (stereo not given) | 67.6 µM (inactive) | > 100 µM (inactive) | 38.5 µM (inactive) | > 100 µM (inactive) | 45.5 µM (inactive) | 65.5 µM (inactive) | > 100 µM (inactive) | > 100 µM (inactive) | 22.3 µM (inactive) | 59.7 µM (inactive) | > 100 µM (inactive) | > 100 µM (inactive) | > 100 µM (inactive) | > 100 µM (inactive) | 44.2 µM (inactive) | 19.1 µM (inactive) | 62.8 µM (inactive) | > 100 µM (inactive) | 52.2 µM (inactive) | 45.1 µM (inactive)
NC(=S)NN=C1Cc2ccccc2C1 | > 100 µM (inactive) | > 100 µM (inactive) | > 100 µM (inactive) | > 100 µM (inactive) | > 100 µM (inactive) | > 100 µM (inactive) | > 100 µM (inactive) | > 100 µM (inactive) | > 100 µM (inactive) | > 100 µM (inactive) | > 100 µM (inactive) | > 100 µM (inactive) | > 100 µM (inactive) | > 100 µM (inactive) | > 100 µM (inactive) | > 100 µM (inactive) | > 100 µM (inactive) | > 100 µM (inactive) | > 100 µM (inactive) | > 100 µM (inactive)
O=c1oc2ncccc2n1Cc1ccc([N+](=O)[O-])cc1 | > 100 µM (inactive) | > 100 µM (inactive) | > 100 µM (inactive) | > 100 µM (inactive) | > 100 µM (inactive) | > 100 µM (inactive) | > 100 µM (inactive) | > 100 µM (inactive) | > 100 µM (inactive) | > 100 µM (inactive) | > 100 µM (inactive) | > 100 µM (inactive) | > 100 µM (inactive) | > 100 µM (inactive) | > 100 µM (inactive) | > 100 µM (inactive) | > 100 µM (inactive) | > 100 µM (inactive) | > 100 µM (inactive) | 80.7 µM (inactive)
COC1=N[C@H](C(C)C)C(OC)=N[C@H]1Cc1ccc(C[C@@H]2N=C(OC)[C@@H](C(C)C)N=C2OC)s1 | 48.6 µM (inactive) | 58.3 µM (inactive) | 19.5 µM (inactive) | 29 µM (inactive) | 19.5 µM (inactive) | 21.3 µM (inactive) | > 100 µM (inactive) | 29.4 µM (inactive) | 33.1 µM (inactive) | 20.8 µM (inactive) | 76.9 µM (inactive) | 33.2 µM (inactive) | > 100 µM (inactive) | 27.6 µM (inactive) | 45.1 µM (inactive) | 49.3 µM (inactive) | 22.6 µM (inactive) | 26.3 µM (inactive) | 58.9 µM (inactive) | > 100 µM (inactive)
COC(=O)/C=C\C(C#N)(C#N)/N=C/c1ccc(C)cc1 | 2.33 µM (inactive) | 19.6 µM (inactive) | 0.0673 µM (active) | 17.7 µM (inactive) | 0.706 µM (active) | 6.44 µM (inactive) | 17.6 µM (inactive) | 2.3 µM (inactive) | 2.21 µM (inactive) | 12.6 µM (inactive) | 2.25 µM (inactive) | 5.86 µM (inactive) | 1.09 µM (active) | 15.5 µM (inactive) | 14.9 µM (inactive) | 4.06 µM (inactive) | 2.28 µM (inactive) | 4.24 µM (inactive) | 2.6 µM (inactive) | 15.3 µM (inactive)
CC1(CCCCO)C=CC(S(=O)(=O)c2ccccc2)CC1 (stereo not given) | 1.78 µM (inactive) | 3.15 µM (inactive) | 2.67 µM (inactive) | 3.64 µM (inactive) | 2.33 µM (inactive) | 4.11 µM (inactive) | 10.8 µM (inactive) | 5.57 µM (inactive) | 9.42 µM (inactive) | 4.27 µM (inactive) | 10.5 µM (inactive) | 5.14 µM (inactive) | 2.84 µM (inactive) | 4.31 µM (inactive) | 6.15 µM (inactive) | 3.42 µM (inactive) | 0.581 µM (active) | 4.41 µM (inactive) | 6.17 µM (inactive) | 1.46 µM (inactive)
Oc1ccc2ccccc2c1-c1c(Nc2ccccc2)ccc2ccccc12 | 19.4 µM (inactive) | 15.4 µM (inactive) | 16.2 µM (inactive) | 18.5 µM (inactive) | 16 µM (inactive) | 18.4 µM (inactive) | 6.08 µM (inactive) | 19.9 µM (inactive) | 6.34 µM (inactive) | 13.6 µM (inactive) | 16.6 µM (inactive) | 17.3 µM (inactive) | 1.32 µM (inactive) | 0.498 µM (active) | 14.9 µM (inactive) | 6.22 µM (inactive) | 8.53 µM (inactive) | 18.9 µM (inactive) | 9.4 µM (inactive) | 16.1 µM (inactive)

Source: ChEMBL document CHEMBL1201862, “PubChem BioAssay data set” (2004)
